pIC50: −log10 of the molar value.
The compounds below were run against T1, SARS-CoV PLP2 (Severe acute respiratory syndrome coronavirus, UniProt P0C6U8). Details: not given.
Format: biochemical

Question: With `Nc1nc(S)c2[nH]cnc2n1` [2-amino-6-mercaptopurine] as the compound, how does the “found in the screen for inhibitor of SARS-CoV PLP2” value (shortened to “found in the screen for inhibitor”) read?
Answer: Its value is “found”.

Question: For `Sc1ncnc2nc[nH]c12` [6-mercaptopurine], which “found in the screen for inhibitor” value is on record?
Answer: The value was “found”.

Question: Which “found in the screen for inhibitor” value does the source give for `Cn1cnc([N+](=O)[O-])c1Sc1ncnc2nc[nH]c12` [Azathioprine] here?
Answer: Its value is “found”.

Question: `[Ca]` [Ca] was tested. Which “effects on the activity of SARS-CoV PLP2” value did it give?
Answer: The value was “no effects”.

Question: `O=NN(CCCl)C(=O)NCCCl` [Carmustine] was tested. Which “found in the screen for inhibitor” value did it give?
Answer: Its value is “found”.

Question: How did the “effects on the activity of SARS-CoV PLP2” value turn out when `[Co]` [Co] was run?
Answer: The value was “no effects”.

Question: Which “inhibition of SARS-CoV PLP2, in words” value does the source give for `S=C([S-])N(Cc1ccccc1)Cc1ccccc1.S=C([S-])N(Cc1ccccc1)Cc1ccccc1.[Zn+2]` [Dibenzyl dithiocarbamic Zn] here?
Answer: The value was “effective in inhibiting”.

Question: `O=C([O-])c1ccccc1-c1c2cc(Br)c(=O)cc-2oc2[c]([Hg+])c([O-])c(Br)cc12.[Na+].[Na+].[OH-]` [Merbromin] was tested. Which “found in the screen for inhibitor” value did it give?
Answer: Its value is “found”.

Question: How did the “effects on the activity of SARS-CoV PLP2” value turn out when `[Mg]` [Mg] was run?
Answer: Its value is “no effects”.

Question: With `[Mn]` [Mn] as the compound, how does the “effects on the activity of SARS-CoV PLP2” value read?
Answer: The value was “no effects”.

Question: `CCN(C(=S)[S-])c1ccccc1.CCN(C(=S)[S-])c1ccccc1.[Zn+2]` [N-ethyl-N-phenyldithiocarbamic acid Zn] was tested. Which “inhibition of SARS-CoV PLP2, in words” value did it give?
Answer: The value was “effective in inhibiting”.

Question: `[Ni]` [Ni] was tested. Which “effects on the activity of SARS-CoV PLP2” value did it give?
Answer: Its value is “no effects”.

Question: Which “found in the screen for inhibitor” value does the source give for `CN(C)C(=S)SSC(=S)N(C)C` [Thiram] here?
Answer: The value was “found”.

Question: How did the pIC50 turn out when `[Zn+2]` [Zinc ion] was run?
Answer: The pIC50 was 5.89.

Question: Which “inhibition of SARS-CoV PLP2, in words” value does the source give for `[O-]n1ccccc1=S.[O-]n1ccccc1=S.[Zn+2]` [hydroxypridine-2-thione Zn] here?
Answer: Its value is “effective in inhibiting”.

Question: With cystatin as the compound, how does the “effective in inhibiting SARS-CoV PLP2” value read?
Answer: Its value is “none of them was effective”.

Same assay, conditions: 0.1 mM

Question: `CC(=O)N[C@@H](CC(C)C)C(=O)N[C@@H](CC(C)C)C(=O)N[C@H](C=O)CCCNC(=N)N` [leupeptin] was tested. Which “effective in inhibiting SARS-CoV PLP2” value did it give?
Answer: The value was “none of them was effective”.

Same assay, conditions: 1 mM

Question: How did the “effective in inhibiting SARS-CoV PLP2” value turn out when `CCN1C(=O)C=CC1=O` [N-ethylmaleimide] was run?
Answer: The value was “effective”.

Question: For `CC(C)C[C@H](NC(=O)[C@@H](NC(=O)N[C@@H](Cc1ccccc1)C(=O)O)[C@@H]1CCN=C(N)N1)C(=O)N[C@H](C=O)Cc1ccccc1` [chymostatin], which “effective in inhibiting SARS-CoV PLP2” value is on record?
Answer: The value was “none of them was effective”.

Biological target: T1, SARS-CoV PLP2
Details: not given
Remark: another data set of the same source

Question: With FRLKGGAPI [FRLKGG-API] as the compound, how does the “percentage of the cleavage after 2 hours of digestion” value read?
Answer: The value was 36%.

Question: And the “percentage of the cleavage after 12 hours of digestion” value?
Answer: Its value is 85%.

Question: Which “percentage of the cleavage after 2 hours of digestion” value does the source give for FRLKGGAPIK [FRLKGG-APIK] here?
Answer: The value was 50%.

Question: What about the “percentage of the cleavage after 12 hours of digestion” value of the same compound?
Answer: Its value is 100%.

Question: FRLKGGAPIKGV was tested. Which “Cleavage % 2 h” value did it give?
Answer: The value was 70.1 ± 7.4%.

Question: And the “Cleavage % 2 hours” value?
Answer: Its value is 70 ± 7%.

Question: What about the “Cleavage % 12 h” value of the same compound?
Answer: The value was 100 ± 0.0%.

Question: And the “Cleavage % 12 hours” value?
Answer: Its value is 100%.

Question: What about the “percentage of the cleavage after 2 hours of digestion” value of the same compound?
Answer: The value was 70%.

Question: And the “percentage of the cleavage after 12 hours of digestion” value?
Answer: The value was 100%.

Question: Which results are given for ISLKGGKIVSTC [Gly2740-Lys2741]?
Answer: Cleavage % 2 hours: 7 ± 1%; Cleavage % 12 hours: 29 ± 4%; percentage of the cleavage after 2 hours of digestion: 7%; percentage of the cleavage after 12 hours of digestion: 29%

Question: For LKGGAPIK, which “percentage of the cleavage after 2 hours of digestion” value is on record?
Answer: Its value is 11%.

Question: And the “percentage of the cleavage after 12 hours of digestion” value?
Answer: The value was 45%.

Question: With “NNVFRLKGGAPIKGVTFG [N N V F R L K G G A P I K G V T F G]” as the compound, how does the “Cleavage % 2 hours” value read?
Answer: The value was 60.5 ± 0.7%.

Question: And the “Cleavage % 12 hours” value?
Answer: Its value is 100 ± 0.0%.

Question: “NVFRLKGGAPIKGVTF [N V F R L K G G A P I K G V T F]” was tested. Which “Cleavage % 2 hours” value did it give?
Answer: Its value is 63.0 ± 1.4%.

Question: What about the “Cleavage % 12 hours” value of the same compound?
Answer: Its value is 100 ± 0.0%.

Question: For RLKGGAPIKG [RLKGG-APIKG], which “percentage of the cleavage after 12 hours of digestion” value is on record?
Answer: The value was 56%.

Same assay, conditions: pH 6.8

Question: FRLKGGAPI [FRLKGG-API] was tested. Which “Cleavage % 2 hours” value did it give?
Answer: Its value is 36.2 ± 6.4%.

Question: And the “Cleavage % 12 hours” value?
Answer: Its value is 85.1 ± 4.9%.

Question: How did the “Cleavage % 2 hours” value turn out when FRLKGGAPIK [FRLKGG-APIK] was run?
Answer: The value was 49.9 ± 2.6%.

Question: What about the “Cleavage % 12 hours” value of the same compound?
Answer: Its value is 100 ± 0.0%.

Question: Which results are given for FRLKGGAPIKGV?
Answer: Cleavage % 2 hours: 70.1 ± 7.4%; Cleavage % 12 hours: 100 ± 0.0%

Question: With LKGGAPIK as the compound, how does the “Cleavage % 2 hours” value read?
Answer: The value was 11.4 ± 4.3%.

Question: What about the “Cleavage % 12 hours” value of the same compound?
Answer: Its value is 44.7 ± 3.5%.

Question: Which results are given for RLKGGAPIKG [RLKGG-APIKG]?
Answer: Cleavage % 2 hours: 14.8 ± 4.1%; Cleavage % 12 hours: 56.4 ± 5.6%

Question: With VFRLKGGAPIK as the compound, how does the “Cleavage % 2 hours” value read?
Answer: The value was 52.9 ± 3.5%.

Question: What about the “Cleavage % 12 hours” value of the same compound?
Answer: Its value is 100 ± 0.0%.

Question: Which “Cleavage % 2 hours” value does the source give for “VFRLKGGAPIKGVT [V F R L K G G A P I K G V T]” here?
Answer: The value was 67.6 ± 9.0%.

Question: What about the “Cleavage % 12 hours” value of the same compound?
Answer: Its value is 100 ± 0.0%.

From US20070160981A1 (priority 2005, published 2007)
